Blank lines part the entries; values can stand above or below the compound they belong to.
What was measured:
cloned human c-Raf = target: T1, cloned human c-Raf (Homo sapiens, UniProt P04049); assay: c-Raf HTRF assay with 6H-MEK as substrate (dose response); type: biochemical; settings: 6H-MEK substrate
T1 construct: made in house; host or cells: High-5 (Hi5) insect cells, baculovirus, co-infected with FLAG-vSrc
Protocol: c-Raf HTRF Assay with 6H-MEK as Substrate (Dose Response)
This assay utilizes 6H-MEK as the substrate. Upon c-Raf phosphorylation, phosphorylated 6H-MEK is detected with rabbit anti-phospho-MEK1/2, Eu-labeled anti-rabbit, and APC-labeled anti-6H antibodies.
(§1) Procedure • (1) Prepare Kinase Assay Buffer (KAB): 50 mM HEPES (HyClone) pH7, 10 mM MgCl2, 1 mM DTT, 0.1 mM […], and 0.3 mg/ml BSA. • (2) Prepare 6H-MEK (150 nM) in KAB. Add 12 μl/well to the assay plate. • (3) Prepare ATP (66 μM) in KAB. • (4) Dilute compounds to 2.4 mM and any positive controls to 480 μM in DMSO. Perform 10-point 3× dilution in DMSO. […] For the cross talk factor sample, add 6 μl/well of Eu-anti rabbit IgG (9 nM). • (14) Incubate at room temperature for 1.5 hours. • (15) Read HTRF signals at 615 nm and 665 nm on the Envision. […]
N terminal EE-tagged c-Raf was expressed in High-5 cells. […] Protein concentration was determined by the BioRad DC method.

p38 MAP kinase = target: T2, p38 MAP kinase (Homo sapiens, UniProt Q16539); assay: p38 MAP kinase in vitro assay (33P-ATP phosphate transfer to Myelin Basic Protein); type: biochemical
T2 construct: made in house; host or cells: E. coli (co-expressed with SEK-1 and MEKK)
T2 sequence (Q16539 whole entry): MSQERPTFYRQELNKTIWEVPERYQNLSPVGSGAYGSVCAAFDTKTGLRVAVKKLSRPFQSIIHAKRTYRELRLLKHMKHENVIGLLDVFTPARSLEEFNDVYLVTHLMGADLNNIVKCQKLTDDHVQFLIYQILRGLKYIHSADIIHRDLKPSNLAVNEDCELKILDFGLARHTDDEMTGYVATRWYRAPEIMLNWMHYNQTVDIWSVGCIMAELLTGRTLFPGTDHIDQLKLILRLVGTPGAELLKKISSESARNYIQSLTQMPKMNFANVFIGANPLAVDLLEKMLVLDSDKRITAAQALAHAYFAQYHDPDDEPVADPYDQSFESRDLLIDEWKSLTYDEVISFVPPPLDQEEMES
Protocol: This example illustrates a p38 (MAP) kinase in vitro assay useful for evaluating the compounds of the invention.
The p38 MAP kinase inhibitory activity of compounds of this invention in vitro was determined by measuring the transfer of the γ-phosphate from γ-^33P-ATP by p-38 kinase to Myelin Basic Protein (MBP), using a minor modification of the method described in Ahn, et al., J. Biol. Chem. 266:4220-4227 (1991).
The phosphorylated form of the recombinant p38 MAP kinase was co-expressed with SEK-1 and MEKK in E. Coli (see, Khokhlatchev, et al., J. Biol. Chem. 272:11057-11062 (1997)) and then purified by affinity chromatography using a Nickel column.
The phosphorylated p38 MAP kinase was diluted in kinase buffer (20 mM 3-(N-morpholino)propanesulfonic acid, pH 7.2, 25 mM β-glycerol phosphate, 5 mM ethylene glycol-bis(beta-aminoethyl ether)-N,N,N′,N′-tetraacetic acid, 1 mM sodium ortho-vanadate, 1 mM dithiothreitol, 40 mM magnesium chloride). Test compound dissolved in DMSO or only DMSO (control) was added and the samples were incubated for 10 min at 30° C. The kinase reaction was initiated by the addition of a substrate cocktail containing MBP and γ-^33P-ATP. […] The phosphorylated MBP was then separated from the residual γ-^33P-ATP using a phosphocellulose membrane (Millipore, Bedfrod, Mass.) and quantitated using a scintillation counter (Packard, Meriden, Conn.).

[1] = target: T3, recombinant human b-Raf residues 416-end containing a V600E mutation (Homo sapiens, UniProt P15056, V600E); assay: b-Raf V600E mutant HTRF assay with 6H-MEK as substrate (dose response); type: biochemical; settings: 6H-MEK substrate
T3 construct: recombinant human b-Raf residues 416-end containing a V600E mutation; purchased Upstate 14-5M; host or cells: baculovirus in Sf21 insect cells
T3 sequence (P15056 416-766 V600E): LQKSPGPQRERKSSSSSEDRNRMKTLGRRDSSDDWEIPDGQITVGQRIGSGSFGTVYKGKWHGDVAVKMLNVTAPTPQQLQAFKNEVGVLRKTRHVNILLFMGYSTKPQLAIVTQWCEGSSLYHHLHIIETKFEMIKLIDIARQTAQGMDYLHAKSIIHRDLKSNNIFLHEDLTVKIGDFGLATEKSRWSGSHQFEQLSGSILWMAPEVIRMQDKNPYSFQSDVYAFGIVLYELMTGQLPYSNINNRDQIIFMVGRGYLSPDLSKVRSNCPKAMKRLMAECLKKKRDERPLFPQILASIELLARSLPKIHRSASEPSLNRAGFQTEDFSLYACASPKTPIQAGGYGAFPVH
Protocol: b-Raf V600E Mutant HTRF Assay with 6H-MEK as Substrate (Dose Response)
This assay utilizes 6H-MEK as the substrate. Upon b-Raf V600E phosphorylation, phosphorylated 6H-MEK is detected with rabbit anti-phospho-MEK1/2, Eu-labeled anti-rabbit, and APC-labeled anti-6H antibodies.
as §1, with “Assay Procedure:” for “Procedure”, “and” for “and any”

[2] = target: T4, recombinant human b-Raf residues 416-end (wild type) (Homo sapiens, UniProt P15056); assay: b-Raf wild-type HTRF assay with 6H-MEK as substrate (dose response); type: biochemical; settings: 6H-MEK substrate
T4 construct: recombinant human b-Raf residues 416-end with N-terminal GST-tag; purchased Upstate 14-530M; host or cells: baculovirus in Sf21 insect cells
T4 sequence (P15056 416-766 limits assumed): as the sequence (P15056 416-766 V600E) above, with E185V counted along it
Protocol: b-Raf Wild-Type HTRF Assay with 6H-MEK as Substrate (Dose Response)
This assay utilizes 6H-MEK as the substrate. Upon b-Raf WT phosphorylation, phosphorylated 6H-MEK is detected with rabbit anti-phospho-MEK1/2, Eu-labeled anti-rabbit, and APC-labeled anti-6H antibodies.
as §1, with “Assay Procedure:” for “Procedure”

T1 sequence (P04049 whole entry): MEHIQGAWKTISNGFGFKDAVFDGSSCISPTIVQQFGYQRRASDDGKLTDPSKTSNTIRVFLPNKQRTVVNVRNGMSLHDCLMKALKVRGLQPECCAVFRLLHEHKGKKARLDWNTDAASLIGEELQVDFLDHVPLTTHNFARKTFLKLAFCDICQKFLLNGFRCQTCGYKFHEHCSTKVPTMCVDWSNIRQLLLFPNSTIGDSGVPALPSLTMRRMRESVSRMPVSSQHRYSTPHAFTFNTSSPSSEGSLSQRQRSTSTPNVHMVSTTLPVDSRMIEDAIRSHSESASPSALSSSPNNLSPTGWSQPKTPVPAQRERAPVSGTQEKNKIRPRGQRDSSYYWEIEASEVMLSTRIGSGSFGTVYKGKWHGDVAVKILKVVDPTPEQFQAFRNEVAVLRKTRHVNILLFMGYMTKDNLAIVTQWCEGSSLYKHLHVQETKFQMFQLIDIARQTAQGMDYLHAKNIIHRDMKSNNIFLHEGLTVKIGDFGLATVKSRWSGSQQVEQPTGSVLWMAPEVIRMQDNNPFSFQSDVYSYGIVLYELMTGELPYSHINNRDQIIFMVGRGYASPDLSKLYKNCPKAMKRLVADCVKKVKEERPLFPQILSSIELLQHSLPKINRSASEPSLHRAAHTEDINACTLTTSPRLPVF

IC50 (cloned human c-Raf): ~190 nM
SMILES: Cc1nnc(-c2ccc(C)c(-c3cc4cnc(NC5CCOCC5)nc4n(C)c3=O)c2)o1 [Compound 4, 8-Methyl-6-[2-methyl-5-(5-methyl-[1,3,4]oxadiazol-2-yl)-phenyl]-2-(tetrahydro-pyran-4-ylamino)-8H-pyrido[2,3-d]pyrimidin-7-one]

IC50 (p38 MAP kinase): ~0.66 nM
SMILES: Cc1ccc(-c2ncc[nH]2)cc1-c1cc2cnc(NC3CCOCC3)nc2n(C)c1=O [Compound 13, 6-[5-(1H-Imidazol-2-yl)-2-methyl-phenyl]-8-methyl-2-(tetrahydro-pyran-4-ylamino)-8H-pyrido[2,3-d]pyrimidin-7-one]

melting point: 122.5 to 126.5 °C
SMILES: COC(=O)c1ccc(C)c(-c2cc3cnc(NC4CCOCC4)nc3n(C)c2=O)c1 [Compound 1, 4-Methyl-3-[8-methyl-7-oxo-2-(tetrahydro-pyran-4-ylamino)-7,8-dihydro-pyrido[2,3-d]pyrimidin-6-yl]-benzoic acid methyl ester]

melting point: 253.5 to 254.1 °C
SMILES: Cc1ccc(C#N)cc1-c1cc2cnc(NC3CCOCC3)nc2n(C)c1=O [Compound 12, 4-Methyl-3-[8-methyl-7-oxo-2-(tetrahydro-pyran-4-ylamino)-7,8-dihydro-pyrido[2,3-d]pyrimidin-6-yl]-benzonitrile]

IC50 [1]: ~10 nM
IC50 [2]: ~20 nM
SMILES: CNC(=O)c1ccc(C)c(-c2cc3cnc(NC4CCOCC4)nc3n(C)c2=O)c1 [Compound 8, 4,N-Dimethyl-3-[8-methyl-7-oxo-2-(tetrahydro-pyran-4-ylamino)-7,8-dihydro-pyrido[2,3-d]pyrimidin-6-yl]-benzamide]

melting point: 214.9 to 216 °C
SMILES: Cc1ccc(-c2nnc[nH]2)cc1-c1cc2cnc(NC3CCOCC3)nc2n(C)c1=O [Compound 11, 8-Methyl-6-[2-methyl-5-(4H-[1,2,4]triazol-3-yl)-phenyl]-2-(tetrahydro-pyran-4-ylamino)-8H-pyrido[2,3-d]pyrimidin-7-one]

Source: US7645764B2, “Kinase inhibitors and methods for using the same” (Roche Palo Alto LLC, priority 2006, dated 2010)
